Patent publication US11466006B2, “Dual selective PI3 delta and gamma kinase inhibitors” (Rhizen Pharmaceuticals SA, priority 2013, dated 2022)

What was measured:
Pi3K γ = Pi3K γ (Homo sapiens, UniProt P48736); experiment: Fluorescent (HTRF) determination of PI3 kinase enzyme activity, gamma isoform; format: biochemical; set-up: purchased Millipore (assay kit); settings: Table 1, HTRF; read-out: IC50 (nM) Pi3K γ
Description: Phosphoinositide 3 kinases (PI3K) belong to a class of lipid kinases that play a critical role in the regulation of several key cellular processes. The PI3K are capable of phosphorylating the 3-hydroxy position of phosphoinositols thereby generating second messengers involved in downstream signalling events. The homogenous time resolved fluorescence (HTRF) assay allows detection of 3,4,5-triphosphate (PIP3) formed as a result of phosphorylation of phosphotidylinositol 4,5-biphosphate (PIP2) by PI3K isoforms such as α, β, γ or δ.
PI3K isoform activity for α, β, γ or δ was determined using a PI3K human HTRF™ Assay Kit (Millipore, Billerica, Mass.) with modifications. All incubations were carried out at room temperature. Briefly, 0.5 μl of 40× inhibitor (in 100% DMSO) or 100% DMSO were added to each well of a 384-well white plate (Greiner Bio-One, Monroe, N.C.) containing 14.5 μl 1× reaction buffer /PIP2 (10 mM MgCl2, 5 mM DTT, 1.38 μM PIP2) mix with or without enzyme, followed by 5 μl/well of 400 μM ATP and incubated for an additional 30 minutes. Reaction was terminated by adding 5 μl/well stop solution (Millipore, Billerica, Mass.). […] HRTF ratio was measured on a microplate reader (BMG Labtech., Germany) at an excitation wavelength of 337 nm and emission wavelengths of 665 and 615 nm with an integration time of 400 msec counting delay of 50 msec.

pAKT = pAKT inhibition in human primary CTCL cells (flow cytometry); format: cell-based; settings: cytokine mix stimulated, read-out: EC50, reduction of AKT phosphorylation
Protocol: Flow cytometry analysis of pAKT inhibition: Purified malignant T cells were isolated from donors and cultured overnight in RPMI/1% BSA. Cells were incubated with the test compound for 1.5 hr with a cytokine mix added for the final 30 minutes. The composition of the cytokine mix was 20 ng/ml IL2+5 ng/ml IL7+10 ng/ml IL15+10% FBS. AKT phosphorylation was determined by flow cytometry.

Lewis rats = experiment: Collagen induced arthritis in Lewis rats; format: in vivo, rat
PI3Kδ = PI3Kδ (Homo sapiens, UniProt O00329); experiment: Anti-FcεR1 induced CD63 expression in basophils from human whole blood; format: cell-based; set-up: Add 49 μl of patient's whole blood to each tube; endogenous in cells; host or cells: basophils in human whole blood; settings: n=10, read-out: EC50 for FcεR1 (PI3K δ), CD63 positive basophils
Protocol: PI3K δ and γ signalling in basophils manifested by an alteration of anti-FcεR1 or fMLP induced CD63 expression is a useful pharmacodynamic marker determined using the Flow2CAST® kit (Buhlmann Laboratories, Switzerland). Briefly, it involves the following steps: • Mix the anti-coagulated blood sample by inverting the venipuncture tube several times; • Prepare fresh and pyrogen-free 3.5 ml polypropylene or polystyrene tubes suitable for Flow Cytometry measurements; • Add 49 μl of patient's whole blood to each tube; • Add 1 μl of 10% DMSO (background) or compound (10% DMSO) to the assigned tubes and mix gently. Incubate at room temperature for 15 minutes; • Pipet 50 μl of the Stimulation buffer (background) or anti-FcεRI Ab or or fMLP to each tube; • Add 100 μl of Stimulation Buffer to each tube; • Mix gently. Add 20 μl Staining Reagent (1:1 mix of FITC-CD63 and PE-CCR3) to each tube; • Mix gently, cover the tubes and incubate for 15 minutes at 37° C. in a water bath. […]
Percent CD63 positive cells within the gated basophil population were determined in different treatment groups and normalized to vehicle control.

PI3K delta = molecular target: T1, PI3K delta (Homo sapiens, UniProt O00329); experiment: Anti-IgM induced B-cell proliferation (PI3Kδ selectivity); format: cell-based; settings: read-out: Cellular IC50 PI3K delta (anti-IgM induced human B-cell proliferation)
T1 construct: Isolated B-cells were re-suspended to 1.0×10^6 cells per ml; endogenous in cells; host or cells: isolated human B cells
Protocol: The objective of this study was to assess the inhibitory potential of Compound A1 on anti-IgM induced human B-cell proliferation.
• Isolated B-cells were re-suspended to 1.0×10^6 cells per ml. 100 μl of cell suspension was added to each well of a 96-well plate. Triplicates were maintained. • 50 μl of drug dilution was added and mixed well. A DMSO blank and inducer blank were maintained. • Treated plate was incubated for 30 min at 37° C., 5% CO2 and then 50 μl of 4× inducer was added and mixed by pipetting. • Plate was incubated at 37° C., 5% CO2 for 72 h. • Media was aspirated and 150 μl of DMSO was added to dissolve the formazan crystals. • Absorbance was read at A560 and A640 nm.

[1] = tested on: ovalbumin sensitized mice; experiment: Murine asthma model (ovalbumin sensitized mice); format: in vivo, mouse; settings: 3 mg/kg oral
Description: Airway inflammation and hyper-responsiveness (AHR) are hallmarks and distinguishing features of bronchial asthma. Provocation of pre-sensitized mice with the same allergen induces airway inflammation with preferential eosinophilic infiltration and, as a consequence, AHR. Pulmonary eosinophilia and airway remodelling in conjunction with altered neural control of airway tone and airway epithelial desquamation may contribute to AHR in asthma. After the quarantine period, based on their body weights, mice were randomized and divided into four groups (n=7). Tails were marked with an indelible marking pen for identification. On day 0, weights were recorded and animals were sensitized with 100 μg of Ovalbumin and 10 mg of alum solution (0.2 mL) intraperitoneally. On day 7 and day 14, the above sensitization protocol was repeated. […] On day 24, 25, and 26, after the treatment with test compound by oral gavage, 30 mins later animals were exposed to 10% w/v Ovalbumin challenge. […] Forty eight hours after last OVA challenge, airway hyperresponsiveness was measured by whole body plethysmograph against cumulative doses of methacholine challenge (2.5, 10, 50 and 100 mg/ml), after measuring the airway response, blood samples and BAL fluid was collected. Samples were analysed for total cell count by using neubuear chamber under microscope and differential leukocyte count was done manually.

PI3Kδ, sequence (O00329 whole entry): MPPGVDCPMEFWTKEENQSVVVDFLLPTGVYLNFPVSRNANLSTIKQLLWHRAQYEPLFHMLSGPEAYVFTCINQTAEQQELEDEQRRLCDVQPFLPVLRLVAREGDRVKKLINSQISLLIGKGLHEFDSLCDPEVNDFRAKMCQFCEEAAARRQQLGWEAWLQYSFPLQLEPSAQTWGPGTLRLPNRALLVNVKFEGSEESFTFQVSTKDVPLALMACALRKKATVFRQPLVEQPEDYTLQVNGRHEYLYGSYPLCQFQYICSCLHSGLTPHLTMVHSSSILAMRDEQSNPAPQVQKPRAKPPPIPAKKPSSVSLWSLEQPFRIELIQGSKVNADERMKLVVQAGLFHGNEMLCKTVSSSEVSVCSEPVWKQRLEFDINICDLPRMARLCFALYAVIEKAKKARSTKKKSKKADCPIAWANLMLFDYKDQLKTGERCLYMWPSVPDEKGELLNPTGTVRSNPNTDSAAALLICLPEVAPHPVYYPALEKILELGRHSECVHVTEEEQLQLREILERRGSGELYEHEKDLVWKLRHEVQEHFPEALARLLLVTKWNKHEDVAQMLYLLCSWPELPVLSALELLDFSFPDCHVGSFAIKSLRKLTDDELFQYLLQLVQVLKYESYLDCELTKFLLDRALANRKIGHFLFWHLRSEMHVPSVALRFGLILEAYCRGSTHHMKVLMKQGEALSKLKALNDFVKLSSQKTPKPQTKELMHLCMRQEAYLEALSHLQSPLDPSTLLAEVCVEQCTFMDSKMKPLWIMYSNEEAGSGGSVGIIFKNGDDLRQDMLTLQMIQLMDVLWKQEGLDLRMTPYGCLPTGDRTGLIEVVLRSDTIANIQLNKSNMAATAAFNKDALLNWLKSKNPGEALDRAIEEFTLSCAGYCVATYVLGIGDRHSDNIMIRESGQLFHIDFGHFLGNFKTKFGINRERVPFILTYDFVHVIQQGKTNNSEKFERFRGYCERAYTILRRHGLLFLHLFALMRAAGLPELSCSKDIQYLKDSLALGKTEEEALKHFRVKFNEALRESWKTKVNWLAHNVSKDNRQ
PI3Kδ, sequence (P27986 whole entry partner): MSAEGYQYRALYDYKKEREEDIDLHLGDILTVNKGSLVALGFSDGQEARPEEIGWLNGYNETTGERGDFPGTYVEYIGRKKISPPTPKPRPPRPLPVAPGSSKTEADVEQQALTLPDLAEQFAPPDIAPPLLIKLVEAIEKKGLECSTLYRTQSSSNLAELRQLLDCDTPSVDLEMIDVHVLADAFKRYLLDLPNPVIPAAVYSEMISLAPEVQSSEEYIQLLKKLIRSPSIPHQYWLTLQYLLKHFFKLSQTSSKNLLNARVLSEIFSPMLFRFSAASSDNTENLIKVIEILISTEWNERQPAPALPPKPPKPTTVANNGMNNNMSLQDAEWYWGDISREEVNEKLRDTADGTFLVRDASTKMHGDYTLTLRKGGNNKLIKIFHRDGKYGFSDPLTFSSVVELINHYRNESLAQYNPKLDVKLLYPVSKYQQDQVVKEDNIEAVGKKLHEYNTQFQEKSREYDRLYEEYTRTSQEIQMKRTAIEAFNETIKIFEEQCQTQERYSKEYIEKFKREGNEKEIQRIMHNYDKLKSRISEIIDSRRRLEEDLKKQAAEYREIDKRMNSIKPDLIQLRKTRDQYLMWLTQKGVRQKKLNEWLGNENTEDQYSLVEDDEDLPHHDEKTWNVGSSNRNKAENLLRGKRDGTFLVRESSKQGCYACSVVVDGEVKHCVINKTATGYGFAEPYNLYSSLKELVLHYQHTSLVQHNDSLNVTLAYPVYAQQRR
T1 sequence (O00329 whole entry): as the sequence (O00329 whole entry) above
T1 sequence (P27986 whole entry partner): as the sequence (P27986 whole entry partner) above
Pi3K γ, sequence (P48736 whole entry, canonical isoform): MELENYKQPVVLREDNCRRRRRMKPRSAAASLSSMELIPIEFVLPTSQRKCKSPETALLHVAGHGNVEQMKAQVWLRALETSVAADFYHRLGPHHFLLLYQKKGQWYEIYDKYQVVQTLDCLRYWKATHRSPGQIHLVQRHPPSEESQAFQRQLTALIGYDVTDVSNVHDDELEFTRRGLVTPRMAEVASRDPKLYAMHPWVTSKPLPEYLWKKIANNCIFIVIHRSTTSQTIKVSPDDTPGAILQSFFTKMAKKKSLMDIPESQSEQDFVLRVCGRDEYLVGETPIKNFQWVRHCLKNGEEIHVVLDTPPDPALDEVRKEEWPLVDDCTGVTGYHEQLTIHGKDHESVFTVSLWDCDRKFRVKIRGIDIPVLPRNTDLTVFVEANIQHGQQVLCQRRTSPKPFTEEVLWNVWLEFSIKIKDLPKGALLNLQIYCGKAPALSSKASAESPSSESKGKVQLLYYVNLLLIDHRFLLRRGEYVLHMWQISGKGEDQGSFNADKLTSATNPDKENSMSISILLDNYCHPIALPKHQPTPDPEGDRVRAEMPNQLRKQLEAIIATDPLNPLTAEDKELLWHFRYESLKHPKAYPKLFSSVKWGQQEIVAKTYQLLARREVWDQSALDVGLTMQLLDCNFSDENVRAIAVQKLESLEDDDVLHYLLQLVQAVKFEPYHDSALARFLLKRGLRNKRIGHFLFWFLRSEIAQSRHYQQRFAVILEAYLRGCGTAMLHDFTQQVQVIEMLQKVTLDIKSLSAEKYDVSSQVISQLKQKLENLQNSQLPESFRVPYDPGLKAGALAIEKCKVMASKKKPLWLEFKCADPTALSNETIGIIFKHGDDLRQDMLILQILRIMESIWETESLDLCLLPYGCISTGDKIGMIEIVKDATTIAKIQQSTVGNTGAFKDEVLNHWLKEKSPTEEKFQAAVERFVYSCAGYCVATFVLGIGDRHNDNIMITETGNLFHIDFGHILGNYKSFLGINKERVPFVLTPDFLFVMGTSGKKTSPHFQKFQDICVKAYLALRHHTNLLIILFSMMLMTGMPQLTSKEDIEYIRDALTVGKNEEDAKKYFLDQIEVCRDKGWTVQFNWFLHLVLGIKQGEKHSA

## CC[C@H](Nc1ncnc2[nH]cnc12)c1oc2ccccc2c(=O)c1-c1cccc(F)c1 [Compound A1, (S)-2-(1-(9H-purin-6-ylamino)propyl)-3-(3-fluorophenyl)-4H-chromen-4-one]
Pi3K γ
  IC50: 24.1 nM
pAKT
  EC50: 0.04 to 0.3 µM
Lewis rats; 15 mg/kg
  histological analysis of joints at study end: complete structural preservation
Lewis rats; 15 mg/kg/BID
  individual and summed histopathological scores for knee and ankle: significant reduction
Lewis rats; rat CIA model, dosed therapeutically, oral
  reduction of knee and ankle swelling: significant efficacy
PI3Kδ
  EC50: < 0.04 µM
PI3K delta
  IC50: 0.0381 µM
[1]
  airway hyperresponsiveness against methacholine challenge: significant reduction
  eosinophil infiltration into the bronchoalveolar lavage fluid: significant inhibition
